# What was measured:
# [1] = test system: C. difficile 630Δerm; experiment: Minimum inhibitory concentration; format: cell-based, Clostridioides difficile; settings: with or without LL-37 (Supl. Table 1)
# [2] = test system: vanZ1 (CD1240) transcription in 630Δerm; experiment: vanZ1 expression by qRT-PCR during growth in antimicrobials; format: cell-based, Clostridioides difficile
Compound,teicoplanin MIC of 630Δerm whether or not LL-37 was present [1],increase of vanZ1 expression during growth in LL-37 [2]
teicoplanin,remained unchanged,–
CC[C@H](C)[C@H](NC(=O)[C@H](CCCCN)NC(=O)[C@H](CCC(=O)O)NC(=O)[C@H](CCCCN)NC(=O)[C@H](CO)NC(=O)[C@H](CCCCN)NC(=O)[C@H](CCCNC(=N)N)NC(=O)[C@H](Cc1ccccc1)NC(=O)[C@H](Cc1ccccc1)NC(=O)[C@H](CC(=O)O)NC(=O)CNC(=O)[C@H](CC(C)C)NC(=O)[C@@H](N)CC(C)C)C(=O)NCC(=O)N[C@@H](CCCCN)C(=O)N[C@@H](CCC(=O)O)C(=O)N[C@@H](Cc1ccccc1)C(=O)N[C@@H](CCCCN)C(=O)N[C@@H](CCCNC(=N)N)C(=O)N[C@H](C(=O)N[C@H](C(=O)N[C@@H](CCC(N)=O)C(=O)N[C@@H](CCCNC(=N)N)C(=O)N[C@H](C(=O)N[C@@H](CCCCN)C(=O)N[C@@H](CC(=O)O)C(=O)N[C@@H](Cc1ccccc1)C(=O)N[C@@H](CC(C)C)C(=O)N[C@@H](CCCNC(=N)N)C(=O)N[C@@H](CC(N)=O)C(=O)N[C@@H](CC(C)C)C(=O)N[C@H](C(=O)N1CCC[C@H]1C(=O)N[C@@H](CCCNC(=N)N)C(=O)N[C@H](C(=O)N[C@@H](CCC(=O)O)C(=O)N[C@@H](CO)C(=O)O)[C@@H](C)O)C(C)C)[C@@H](C)CC)C(C)C)[C@@H](C)CC [LL-37],–,~ 37 fold

# From article PMC6309587 (Anaerobe, 2018)
